ChEMBL document CHEMBL4229354, “Synthesis, antiamoebic activity and docking studies of metronidazole-triazole-styryl hybrids” (Eur J Med Chem, 2018)

Legend:
Vero = test: Cytotoxicity against African green monkey Vero cells up to 50 uM; assay type: cell-based; conditions: chlorocebus sabaeus
Entamoeba histolytica = test: Antiamoebic activity against trophozoite stage of Entamoeba histolytica HM-1:IMSS measured after 72 hrs by microdilution method; assay type: functional, organism-based

## O=[N+]([O-])c1cnc(/C=C/c2ccc(Cl)cc2)n1CCn1cc(COc2ccccc2)nn1
Vero
  Activity: Non-Toxic
Entamoeba histolytica
  IC50: 350 nM

## O=[N+]([O-])c1cnc(/C=C/c2ccc(Br)cc2)n1CCn1cc(COc2ccccc2)nn1
Entamoeba histolytica
  IC50: 1680 nM

## O=[N+]([O-])c1cnc(/C=C/c2ccccc2)n1CCn1cc(-c2ccccn2)nn1
Entamoeba histolytica
  IC50: 5130 nM

## O=[N+]([O-])c1cnc(/C=C/c2ccc(Br)cc2)n1CCn1cc(-c2ccccc2)nn1
Entamoeba histolytica
  IC50: 1770 nM

## O=[N+]([O-])c1cnc(/C=C/c2ccccc2)n1CCn1cc(-c2ccccc2)nn1
Vero
  Activity: Non-Toxic
Entamoeba histolytica
  IC50: 1350 nM

## Cc1ccc(/C=C/c2ncc([N+](=O)[O-])n2CCn2cc(COc3ccccc3)nn2)cc1
Entamoeba histolytica
  IC50: 5380 nM

## O=[N+]([O-])c1cnc(/C=C/c2ccc(F)cc2)n1CCn1cc(-c2ccccc2)nn1
Vero
  Activity: Non-Toxic
Entamoeba histolytica
  IC50: 120 nM

## O=[N+]([O-])c1cnc(/C=C/c2ccc(F)cc2)n1CCn1cc(CO)nn1
Vero
  Activity: Non-Toxic
Entamoeba histolytica
  IC50: 180 nM

## O=[N+]([O-])c1cnc(/C=C/c2ccc(Br)cc2)n1CCn1cc(CO)nn1
Entamoeba histolytica
  IC50: 1650 nM

## O=[N+]([O-])c1cnc(/C=C/c2ccc(F)cc2)n1CCn1cc(-c2ccccn2)nn1
Vero
  Activity: Non-Toxic
Entamoeba histolytica
  IC50: 130 nM

## O=[N+]([O-])c1cnc(/C=C/c2ccc(Cl)cc2)n1CCn1cc(-c2ccccc2)nn1
Vero
  Activity: Non-Toxic
Entamoeba histolytica
  IC50: 1220 nM

## O=[N+]([O-])c1cnc(/C=C/c2ccc(F)cc2)n1CCn1cc(COc2ccccc2)nn1
Vero
  Activity: Non-Toxic
Entamoeba histolytica
  IC50: 280 nM

## O=[N+]([O-])c1cnc(/C=C/c2ccccc2)n1CCn1cc(COc2ccccc2)nn1
Entamoeba histolytica
  IC50: 3560 nM

## Cc1ccc(/C=C/c2ncc([N+](=O)[O-])n2CCn2cc(-c3ccccn3)nn2)cc1
Entamoeba histolytica
  IC50: 6010 nM

## O=[N+]([O-])c1cnc(/C=C/c2ccc(Cl)cc2)n1CCn1cc(CO)nn1
Vero
  Activity: Non-Toxic
Entamoeba histolytica
  IC50: 1110 nM

## Cc1ccc(/C=C/c2ncc([N+](=O)[O-])n2CCn2cc(-c3ccccc3)nn2)cc1
Entamoeba histolytica
  IC50: 2510 nM

## CCc1ccc(/C=C/c2ncc([N+](=O)[O-])n2CCn2cc(CO)nn2)cc1
Entamoeba histolytica
  IC50: 4180 nM

## CCc1ccc(/C=C/c2ncc([N+](=O)[O-])n2CCn2cc(-c3ccccc3)nn2)cc1
Entamoeba histolytica
  IC50: 4680 nM

## O=[N+]([O-])c1cnc(/C=C/c2ccc(Br)cc2)n1CCn1cc(-c2ccccn2)nn1
Vero
  Activity: Non-Toxic
Entamoeba histolytica
  IC50: 1100 nM

## Cc1ccc(/C=C/c2ncc([N+](=O)[O-])n2CCn2cc(CO)nn2)cc1
Entamoeba histolytica
  IC50: 2130 nM

## O=[N+]([O-])c1cnc(/C=C/c2ccc(Cl)cc2)n1CCn1cc(-c2ccccn2)nn1
Vero
  Activity: Non-Toxic
Entamoeba histolytica
  IC50: 290 nM

## O=[N+]([O-])c1cnc(/C=C/c2ccccc2)n1CCn1cc(CO)nn1
Vero
  Activity: Non-Toxic
Entamoeba histolytica
  IC50: 1120 nM
